Common to all, as to type: cell-based
In one assay the test system is HepG2. The assay is described as follows: MTT cytotoxicity assay, HepG2 (liver cancer). The conditions noted are these: Homo sapiens. As for the experimental part: (§1) Cell survival after exposure to the sphingolipid metabolite mimetics was examined by MTT cytotoxicity assay. HepG2, A431, HeLa, MCF-7 and SA cells (7000 cells/well) were seeded in each well of a 96-well plate for 24 h. New medium was added to give final concentrations of 0 to 200 μM of the sphingolipid metabolite mimetics. Then, 50 μl of 1 mg/ml 3-(4,5-dimethylthiazol-2-yl)-2,5-diphenyltetrazolium bromide (MTT, Sigma-Aldrich Chemical) was added to each well for 4 h incubation at 37° C. The purple formazan formed was then solubilized by DMSO and absorbance at 570 nm was read by a microplate reader (Molecular Devices, Sunnyvale, Calif.).
A general note: Tetrazolium assays rely on reduction of a dye to a coloured formazan, in cell work by metabolically active cells.

Another assay deals with A431. The assay is described as follows: MTT cytotoxicity assay, A431 (squamous carcinoma). Particulars: Homo sapiens, A-431. As for the experimental part: as §1
The subject of the next assay is SA. Briefly: MTT cytotoxicity assay, SA (pancreatic cancer as headed). As for the experimental part:
as §1

The subject of another assay is MCF-7. Briefly: MTT cytotoxicity assay, MCF-7 (breast cancer). The conditions noted are these: Homo sapiens, MCF7; Breast Cancer MCF-7, MTT. As for the experimental part: as §1
Another assay deals with SiHa. Briefly: MTT cytotoxicity assay, SiHa (ovarian cancer as headed). Particulars: Homo sapiens, Cervical Cancer SiHa.
The subject of a further assay is SW620. The assay is described as follows: MTT cytotoxicity assay, SW620 (colon cancer). The conditions noted are these: Homo sapiens, SW-620.
Another assay concerns SW480. The assay is described as follows: MTT cytotoxicity assay, SW480 (colon cancer). The conditions noted are these: Homo sapiens.
Assay [1] deals with multiple types of cancer cells. Briefly: MTT cytotoxicity, statements over several cancer cell lines. The conditions noted are these: for direct anti-cancer cell activity: summary statement. On the procedure: as §1
The subject of the next assay is SW620 cells. The assay is described as follows: Drug sensitivity MTT assay with TRAIL, SW620. The arrangement: scale not given here. The conditions noted are these: for NZJU alone mean value (sensitivity, growth inhibition): drug alone (19-100 μM; TRAIL 100 ng/ml); for NZJU alone mean value (sensitivity, growth inhibition) / combine mean value (sensitivity, growth inhibition): 48 h; for Enhanced mean value: enhancement due to co-administration with TRAIL; for combine mean value (sensitivity, growth inhibition): mimetic at the dose of its row combined with TRAIL 100 ng/ml. On the procedure: (§2) Cell survival after exposure to the anti-tumor agents was examined by MTT cytotoxicity assay. Cells were seeded in each well of a 96-well plate for 24 h. After incubation with various concentrations of compounds, TRAIL, or both for 48 h, the medium was discarded. Then, 50 μl of 1 mg/ml 3-(4,5-dimethylthiazol-2-yl)-2,5-diphenyltetrazolium bromide (MTT, Sigma-Aldrich Chemical) was added to each well for 4 h incubation at 37° C. The purple formazan formed was then solubilized by DMSO and absorbance at 570 nm was read by a microplate reader (Molecular Devices, Sunnyvale, Calif.).

A further assay has as its system MCF-7 cells. Briefly: Drug sensitivity MTT assay with TRAIL, MCF-7. Details: scale not given here. The conditions noted are these: for NZJU alone mean value (sensitivity, growth inhibition): drug alone (19-100 μM; TRAIL 100 ng/ml); for NZJU alone mean value (sensitivity, growth inhibition) / combine mean value (sensitivity, growth inhibition): 48 h; for Enhanced mean value: enhancement due to co-administration with TRAIL; for combine mean value (sensitivity, growth inhibition): mimetic at the dose of its row combined with TRAIL 100 ng/ml. On the procedure:
as §2

The subject of another assay is HELA cells. The assay is described as follows: Drug sensitivity MTT assay with TRAIL, HELA. The conditions noted are these: for NZJU alone mean value (sensitivity, growth inhibition): drug alone (19-100 μM; TRAIL 100 ng/ml); for NZJU alone mean value (sensitivity, growth inhibition) / combine mean value (sensitivity, growth inhibition): 48 h; for Enhanced mean value: enhancement due to co-administration with TRAIL; for combine mean value (sensitivity, growth inhibition): mimetic at the dose of its row combined with TRAIL 100 ng/ml. Details: scale not given here. As for the experimental part: as §2

Assay [2] concerns cancer cells (TRAIL resistance). The assay is described as follows: Sensitization of cancer cells to TRAIL-induced apoptosis, general statements. The conditions noted are these: summary statement. As for the experimental part:
as §2

Bounds are passed on as bounds.

Consider `CCCCCCCCCCCCCCNC(=O)[C@@H](NC(=O)c1nccc2ccccc12)[C@@H](C)O` [NZJU31, N-((2S,3R)-3-hydroxy-1-oxo-1-(tetradecylamino)butan-2-yl)-isoquinoline-1-carboxamide], for which the concentration for half-maximal inhibition (IC50) in the assay on HepG2 is 28.6 ± 3.77 µM; in the assay with A431 it was 23 ± 3.72 µM; in the assay with SA, 24.4 ± 3.6 µM; with MCF-7, 22.8 ± 3.94 µM; in the assay on SiHa it was 21.6 ± 2.26 µM; in the assay on SW620 it was 30.4 ± 2.09 µM. The IC50 is 23.6 µM in the assay on SW480 and less than 30 µM in assay [1] (all five cell lines tested, read-out: IC50 values).
For `CCCCCCCCNC(=O)[C@@H](NC(=O)c1cccs1)[C@@H](C)O` [NZJU44, N-((2S,3R)-3-hydroxy-1-oxo-1-(octylamino)butan-2-yl)-2-thiophene carboxamide], the IC50 with HepG2 was found to be 149 ± 8.7 µM; with A431, 32.1 ± 4.6 µM; with SA it was 60.9 ± 4.29 µM; in the assay on MCF-7, 72.5 ± 3.37 µM; in the assay on SiHa it was 91.85 ± 0.59 µM; in the assay with SW620, 136 ± 42.6 µM. For the same molecule, the “direct anti-cancer cell activity” value in [1] is “direct anti-cancer cell activity”. Moreover, the “NZJU alone mean value (sensitivity, growth inhibition)” value is reported as 0.563 with SW620 cells, 0.625 in the assay with MCF-7 cells, “efficient at killing MCF-7 cells” in the assay on MCF-7 cells (listed as NZJU1g) and 0.218 with HELA cells. For the same molecule, the results for the Enhanced mean value in the assay on SW620 cells, in the assay on MCF-7 cells and in the assay on HELA cells were 0.128, 0.042 and 0.357, respectively. The “combine mean value (sensitivity, growth inhibition)” value in the assay with SW620 cells was determined as 0.853; with MCF-7 cells it was 0.717; in the assay on HELA cells it was 0.315. Further, the TRAIL sensitization activity entry in assay [2] is recorded as “TRAIL sensitization activity”.
On to `CCCCCCCCCCCCCCCCCCNC(=O)[C@@H](NC(=O)Cc1c[nH]c2ccccc12)[C@@H](C)O` [NZJU29, N-((2S,3R)-3-hydroxy-1-oxo-1-(octadecylamino)butan-2-yl)-indole-3-acetic acid amide], for which the IC50 with HepG2 is 57.6 ± 2.69 µM; in the assay with A431 it was 31.8 ± 1.93 µM; in the assay on SA, 54.9 ± 3.9 µM; with MCF-7, 37.3 ± 1.82 µM; in the assay with SiHa, 65.8 ± 6.45 µM; in the assay with SW620 it was 103 ± 7.48 µM. In the assay with SW480, this molecule gave an IC50 of 60 µM. In addition, the “direct anti-cancer cell activity” value in [1] is reported as “direct anti-cancer cell activity”.
On to `CCCCCCCCCCCCNC(=O)[C@@H](NC(=O)c1ccccc1)[C@@H](C)O` [NZJU16, N-((2S,3R)-3-hydroxy-1-oxo-1-(dodecylamino)butan-2-yl)-benzamide], for which the half-maximal inhibitory concentration (IC50) in the assay with HepG2 is greater than 400 µM; in the assay on A431, 41.2 ± 0.69 µM; in the assay with SA it was 75.5 ± 6.24 µM; in the assay on MCF-7, 36.6 ± 8.86 µM; with SiHa it was 63.9 ± 6.01 µM; with SW620, no less than 200 µM. Moreover, the IC50 in the assay with SW480 was determined as 67.2 ± 7.42 µM. Further, in assay [1], the “direct anti-cancer cell activity” value is given as “direct anti-cancer cell activity”. Besides, the “NZJU alone mean value (sensitivity, growth inhibition)” value in the assay with SW620 cells is recorded as 0.376; with MCF-7 cells, 0.479; in the assay with HELA cells, 0.264. Also, the Enhanced mean value was 0.304 with SW620 cells, 0.197 in the assay with MCF-7 cells and 0.298 in the assay on HELA cells. Besides, the “combine mean value (sensitivity, growth inhibition)” value in the assay on SW620 cells is 0.607; with MCF-7 cells it was 0.741; with HELA cells it was 0.597. Besides, in [2], the TRAIL sensitization activity entry is reported as “TRAIL sensitization activity”.
Regarding `CCCCCCCCNC(=O)[C@@H](NC(=O)c1ccccc1)[C@@H](C)O` [NZJU39, N-((2S,3R)-3-hydroxy-1-oxo-1-(octylamino)butan-2-yl)-benzamide], the IC50 is 136 ± 5.92 µM in the assay on HepG2; 61.3 ± 4.09 µM in the assay with A431; 34.6 ± 4.17 µM in the assay with SA; 111 ± 4.66 µM in the assay with MCF-7; 112 ± 2.43 µM in the assay on SiHa; no less than 200 µM with SW620. The same molecule yielded a half-inhibitory concentration (IC50) with SW480 greater than 200 µM. The “direct anti-cancer cell activity” value in assay [1] is reported as “direct anti-cancer cell activity”.
Turning to `CCCCCCCCCCCCNC(=O)[C@@H](NC(=O)c1nccc2ccccc12)[C@@H](C)O` [NZJU30, N-((2S,3R)-3-hydroxy-1-oxo-1-(dodecylamino)butan-2-yl)-isoquinoline-1-carboxamide], the half-inhibitory concentration (IC50) was determined as 65.7 ± 2.63 µM with HepG2; 62.8 ± 7.56 µM with A431; 51.93 ± 0.42 µM in the assay on SA; 50.5 ± 5.65 µM with MCF-7; 56.6 ± 4.91 µM in the assay with SiHa; 65.8 ± 4.14 µM in the assay with SW620. This molecule showed a half-inhibitory concentration (IC50) with SW480 of 58.8 µM. The “direct anti-cancer cell activity” value in assay [1] was “direct anti-cancer cell activity”. For the same molecule, the “NZJU alone mean value (sensitivity, growth inhibition)” value with SW620 cells is given as −0.038; in the assay with SW620 cells (listed as NZJU2f) it was “very little sensitivity”; in the assay on MCF-7 cells it was 0.002; in the assay with HELA cells it was 0.057. Also, the Enhanced mean value is listed as 0.375 with SW620 cells, 0.157 with MCF-7 cells and 0.075 with HELA cells. The “combine mean value (sensitivity, growth inhibition)” value with SW620 cells turned out to be 0.493; in the assay on MCF-7 cells it was 0.274; with HELA cells, 0.195. Also, the TRAIL sensitization activity entry in assay [2] is on record as “TRAIL sensitization activity”.
With `C/C=C/C=C/C(=O)N[C@H](C(=O)NCCCCCCCC)[C@@H](C)O` [NZJU41, (2E,4E)-N-((2S,3R)-3-hydroxy-1-oxo-1-(octylamino)butan-2-yl)-2,4-hexadienoic acid amide], the concentration for half-maximal inhibition (IC50) is 102 ± 4.07 µM in the assay on HepG2; 58.24 ± 0.11 µM in the assay with A431; 40.4 ± 2.16 µM with SA; 149 ± 3.24 µM in the assay on MCF-7; 123 ± 2.5 µM with SiHa; no less than 200 µM with SW620. In the assay with SW480, this molecule came in with an IC50 of 158 µM. Besides, the “direct anti-cancer cell activity” value in assay [1] is “direct anti-cancer cell activity”. In addition, the “NZJU alone mean value (sensitivity, growth inhibition)” value in the assay with SW620 cells is listed as 0.551; in the assay with MCF-7 cells it was 0.347; in the assay with HELA cells it was 0.362. Also, the results for the Enhanced mean value in the assay with SW620 cells, in the assay on MCF-7 cells and in the assay with HELA cells were 0.169, 0.113 and 0.421, respectively. The “combine mean value (sensitivity, growth inhibition)” value in the assay on SW620 cells is 0.790; in the assay with MCF-7 cells, 0.625; with HELA cells it was 0.819. The TRAIL sensitization activity entry in assay [2] is listed as “TRAIL sensitization activity”.
Consider `CCCCCCCCNC(=O)[C@@H](NC(=O)c1cc2ccccc2o1)[C@@H](C)O` [NZJU45, N-((2S,3R)-3-hydroxy-1-oxo-1-(octylamino)butan-2-yl)-benzofuran-2-carboxamide], for which the IC50 was 81.3 ± 9.13 µM with HepG2; 52.7 ± 3.82 µM in the assay with A431; 40.8 ± 3.63 µM with SA; 47.2 ± 7.3 µM in the assay on MCF-7; 66.5 ± 2.5 µM in the assay with SiHa; no less than 200 µM in the assay with SW620. The “direct anti-cancer cell activity” value in assay [1] is listed as “direct anti-cancer cell activity”. In addition, the “NZJU alone mean value (sensitivity, growth inhibition)” value with SW620 cells was 0.205; in the assay with MCF-7 cells, 0.021; with HELA cells, 0.173. Also, the Enhanced mean value in the assay with SW620 cells is listed as 0.309; in the assay with MCF-7 cells, 0.382; with HELA cells it was 0.223. The figures for the “combine mean value (sensitivity, growth inhibition)” value in the assay on SW620 cells, in the assay with MCF-7 cells and in the assay with HELA cells were 0.516, 0.538 and 0.432, respectively. In [2], the TRAIL sensitization activity result is on record as “TRAIL sensitization activity”.

B1: TRAIL: TNF-related apoptosis-inducing ligand, a death receptor ligand used as apoptosis-inducing agent (protein, UniProt P50591 1-281, looked up)
Tumor necrosis factor ligand …: MAMMEVQGGPSLGQTCVLIVIFTVLLQSLCVAVTYVYFTNELKQMQDKYSKSGIACFLKEDDSYWDPNDEESMNSPCWQVKWQLRQLVRKMILRTSEETISTVQEKQQNISPLVRERGPQRVAAHITGTRGRSNTLSSPNSKNEKALGRKINSWESSRSGHSFLSNLHLRNGELVIHEKGFYYIYSQTYFRFQEEIKENTKNDKQMVQYIYKYTSYPDPILLMKSARNSCWSKDAEYGLYSIYQGGIFELKENDRIFVSVTNEHLIDMDHEASFFGAFLVG
In the case of B1, the “NZJU alone mean value (sensitivity, growth inhibition)” value was 0.118 with MCF-7 cells and 0.036 in the assay with HELA cells.

A word on the IC50: it is the concentration at which inhibition is half-maximal.
